Assay results taken from ChEMBL document CHEMBL1201862, “PubChem BioAssay data set” (2004).
Calls of active or inactive are those of the source.

Assays:
[1] = target: Genome polyprotein (dengue virus type 2, UniProt P29990); experiment: flavivirus cap methylation enzyme inhibition – biochemical, confirmation dose response, primary screen (AID 588689); assay type: functional
[2] = CCR5-tropic HIV-1 fusion blockers – cell-based, CCR5-tropic Env, dose response (AID 2279); assay type: functional
[3] = target: T1, Estrogen receptor (Homo sapiens, UniProt P03372);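 note: potency for inhibiting coactivator peptide recruitment to the receptor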
T1 sequence (P03372 whole entry): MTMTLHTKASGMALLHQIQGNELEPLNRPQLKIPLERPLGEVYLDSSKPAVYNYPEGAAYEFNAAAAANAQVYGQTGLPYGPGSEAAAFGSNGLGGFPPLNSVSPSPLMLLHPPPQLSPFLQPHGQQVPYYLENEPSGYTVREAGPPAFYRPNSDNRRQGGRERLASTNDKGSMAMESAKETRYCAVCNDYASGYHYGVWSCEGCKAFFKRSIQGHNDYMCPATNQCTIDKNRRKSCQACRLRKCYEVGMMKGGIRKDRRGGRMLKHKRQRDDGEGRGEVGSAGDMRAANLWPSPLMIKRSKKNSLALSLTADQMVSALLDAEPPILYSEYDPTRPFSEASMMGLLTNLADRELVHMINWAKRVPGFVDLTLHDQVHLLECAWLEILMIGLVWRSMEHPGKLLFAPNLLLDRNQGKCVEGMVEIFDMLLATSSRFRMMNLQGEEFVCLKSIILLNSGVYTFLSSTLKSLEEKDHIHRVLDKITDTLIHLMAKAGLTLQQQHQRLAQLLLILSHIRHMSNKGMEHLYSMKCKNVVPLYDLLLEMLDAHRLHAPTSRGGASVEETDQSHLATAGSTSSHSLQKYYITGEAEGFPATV

Genome polyprotein, sequence (P29990 2492-3391 limits assumed): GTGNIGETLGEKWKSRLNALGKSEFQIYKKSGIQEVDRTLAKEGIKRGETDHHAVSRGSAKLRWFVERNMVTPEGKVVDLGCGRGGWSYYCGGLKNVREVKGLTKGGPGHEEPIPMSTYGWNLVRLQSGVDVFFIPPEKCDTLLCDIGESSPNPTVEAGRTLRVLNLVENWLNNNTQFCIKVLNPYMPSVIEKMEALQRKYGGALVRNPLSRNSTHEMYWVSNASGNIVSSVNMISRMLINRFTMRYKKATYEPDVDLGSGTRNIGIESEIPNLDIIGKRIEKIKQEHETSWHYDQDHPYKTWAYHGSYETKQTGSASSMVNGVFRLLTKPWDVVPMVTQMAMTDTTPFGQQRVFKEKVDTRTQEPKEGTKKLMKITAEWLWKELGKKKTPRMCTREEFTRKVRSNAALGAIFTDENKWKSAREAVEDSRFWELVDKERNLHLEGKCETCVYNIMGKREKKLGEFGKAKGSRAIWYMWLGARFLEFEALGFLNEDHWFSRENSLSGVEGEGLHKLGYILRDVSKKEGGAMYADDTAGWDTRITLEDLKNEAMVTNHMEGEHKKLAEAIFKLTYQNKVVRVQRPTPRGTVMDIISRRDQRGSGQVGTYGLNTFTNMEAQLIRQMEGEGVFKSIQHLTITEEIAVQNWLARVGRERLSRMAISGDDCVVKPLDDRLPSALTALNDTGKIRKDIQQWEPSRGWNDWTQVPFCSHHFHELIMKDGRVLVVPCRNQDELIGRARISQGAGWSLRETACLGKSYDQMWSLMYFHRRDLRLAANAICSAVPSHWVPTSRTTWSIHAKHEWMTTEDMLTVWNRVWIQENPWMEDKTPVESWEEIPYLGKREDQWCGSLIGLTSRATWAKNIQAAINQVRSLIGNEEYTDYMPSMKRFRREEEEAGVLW

Compound	IC50 [1]	IC50 [2]	IC50 [3]
O=C(CCN1C(=O)/C(=C\C=C\c2ccccc2)SC1=S)Nc1ccccc1C(=O)O	64.3 µM (active)	> 50 µM (active)	–
CCC(C)n1nc(O)cc1N (stereo not drawn)	–	–	> 50 µM (not active)
